From ChEMBL document CHEMBL1134533, “Design, synthesis, computational prediction, and biological evaluation of ester soft drugs as inhibitors of dihydrofolate reductase from Pneumocystis carinii” (J Med Chem, 2001)

Columns and labels:
[1] = target: T1, Dihydrofolate reductase (Rattus norvegicus) (UniProt Q920D2); assay: Inhibitory activity against dihydrofolate reductase DHFR from rat liver at 51 uM concentration
T1 sequence (whole entry): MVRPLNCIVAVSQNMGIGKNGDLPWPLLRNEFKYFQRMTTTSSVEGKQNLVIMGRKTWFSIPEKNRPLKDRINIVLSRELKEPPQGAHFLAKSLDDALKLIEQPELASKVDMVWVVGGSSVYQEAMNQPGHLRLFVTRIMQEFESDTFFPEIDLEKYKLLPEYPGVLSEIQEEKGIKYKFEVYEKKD

[2] = target: T2, Dihydrofolate reductase (Pneumocystis carinii) (UniProt P16184); assay: Inhibitory activity against dihydrofolate reductase dihydrofolate reductase from Pneumocystis carinii. at 51 uM concentration
T2 sequence (whole entry): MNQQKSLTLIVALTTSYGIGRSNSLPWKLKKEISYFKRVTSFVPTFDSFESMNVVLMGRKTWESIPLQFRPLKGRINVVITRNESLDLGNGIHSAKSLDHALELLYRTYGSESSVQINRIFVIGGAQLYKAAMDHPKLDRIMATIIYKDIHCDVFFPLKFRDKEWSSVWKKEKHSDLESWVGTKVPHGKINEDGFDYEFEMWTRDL

[3] = target: T3, Bifunctional dihydrofolate reductase-thymidylate synthase (Toxoplasma gondii) (UniProt Q07422); assay: Inhibitory activity against dihydrofolate reductase DHFR from Toxoplasma gondii at 51 uM concentration
T3 sequence (whole entry): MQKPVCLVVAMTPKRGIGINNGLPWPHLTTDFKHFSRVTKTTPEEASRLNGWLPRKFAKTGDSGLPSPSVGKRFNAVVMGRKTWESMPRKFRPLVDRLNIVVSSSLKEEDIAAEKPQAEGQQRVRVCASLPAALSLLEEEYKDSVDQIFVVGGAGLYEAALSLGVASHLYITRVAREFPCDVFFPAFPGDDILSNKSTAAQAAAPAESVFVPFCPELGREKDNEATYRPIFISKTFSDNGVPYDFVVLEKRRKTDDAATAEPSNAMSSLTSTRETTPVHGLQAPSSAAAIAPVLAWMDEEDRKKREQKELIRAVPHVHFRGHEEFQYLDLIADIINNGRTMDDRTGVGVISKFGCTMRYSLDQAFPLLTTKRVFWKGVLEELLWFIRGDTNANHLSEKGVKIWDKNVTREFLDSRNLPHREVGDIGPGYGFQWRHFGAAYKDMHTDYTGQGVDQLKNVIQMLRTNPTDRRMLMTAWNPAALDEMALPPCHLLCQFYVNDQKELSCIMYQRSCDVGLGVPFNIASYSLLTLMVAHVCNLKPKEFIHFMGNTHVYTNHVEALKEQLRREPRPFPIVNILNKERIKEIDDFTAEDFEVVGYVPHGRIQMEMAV

[4] = Ratio of the IC50 values for rlDHFR of the metabolite and pcDHFR of the soft drug
[5] = target: T4, Dihydrofolate reductase (Pneumocystis carinii, UniProt P16184)
T4 sequence (P16184 whole entry): T2 sequence (whole entry)
Description: Inhibitory concentration against dihydrofolate reductase dihydrofolate reductase from Pneumocystis carinii.

[6] = target: T5, Dihydrofolate reductase (Rattus norvegicus, UniProt Q920D2)
T5 sequence (Q920D2 whole entry): T1 sequence (whole entry)
Description: Inhibitory concentration against dihydrofolate reductase DHFR from rat liver.

[7] = target: T6, Bifunctional dihydrofolate reductase-thymidylate synthase (Toxoplasma gondii, UniProt Q07422)
T6 sequence (Q07422 whole entry): T3 sequence (whole entry)
Description: Inhibitory concentration against dihydrofolate reductase DHFR from Toxoplasma gondii

[8] = target: T3, Bifunctional dihydrofolate reductase-thymidylate synthase (Toxoplasma gondii); assay: Relative activity against dihydrofolate reductase DHFR from Toxoplasma gondii
[9] = target: T1, Dihydrofolate reductase (Rattus norvegicus); assay: Inhibitory activity against dihydrofolate reductase DHFR from rat liver at 104 uM concentration
[10] = target: T3, Bifunctional dihydrofolate reductase-thymidylate synthase (Toxoplasma gondii); assay: Inhibitory activity against dihydrofolate reductase DHFR from Toxoplasma gondii at 104 uM concentration
[11] = target: T2, Dihydrofolate reductase (Pneumocystis carinii); assay: Inhibitory activity against dihydrofolate reductase dihydrofolate reductase from Pneumocystis carinii. at 104 uM concentration
[12] = target: T3, Bifunctional dihydrofolate reductase-thymidylate synthase (Toxoplasma gondii); assay: Inhibitory activity against dihydrofolate reductase DHFR from Toxoplasma gondii at 32 uM concentration
[13] = target: T2, Dihydrofolate reductase (Pneumocystis carinii); assay: Inhibitory activity against dihydrofolate reductase dihydrofolate reductase from Pneumocystis carinii. at 32 uM concentration
[14] = target: T1, Dihydrofolate reductase (Rattus norvegicus); assay: Inhibitory activity against dihydrofolate reductase DHFR from rat liver at 32 uM concentration

SMILES	IC50 [5]	IC50 [6]	IC50 [7]	also measured
Nc1nc(N)c2nc(CO)cnc2n1	–	–	–	inhibition [1]: 2%; inhibition [2]: 10%; inhibition [3]: 12%
Cc1c(COC(=O)c2ccccc2)cnc2nc(N)nc(N)c12	250 nM	230 nM	56 nM	Ratio [4]: 33
COc1cc(OC)cc(C(=O)OCc2ccc3nc(N)nc(N)c3c2)c1	460 nM	350 nM	150 nM	–
Nc1nc(N)c2cc(COC(=O)Cc3ccccc3)ccc2n1	–	2300 nM	1900 nM	–
CN(Cc1ccc2nc(N)nc(N)c2c1)c1ccccc1	96 nM	69 nM	11 nM	–
Nc1nc(N)c2cc(CO)ccc2n1	–	40300 nM	44900 nM	–
COc1cc(NCc2ccc3nc(N)nc(N)c3c2C)cc(OC)c1OC [TRIMETREXATE]	–	8 nM	–	–
COc1cc(C(=O)OCc2ccc3nc(N)nc(N)c3c2)cc(OC)c1OC	560 nM	26 nM	50 nM	Relative IC50 [8]: 0.51
Nc1nc(N)c2cc(COC(=O)c3ccccc3)cnc2n1	5450 nM	3900 nM	1900 nM	–
Cc1c(CO)cnc2nc(N)nc(N)c12	–	8500 nM	3200 nM	–
COc1ccc(C(=O)OCc2ccc3nc(N)nc(N)c3c2)c(OC)c1OC	1400 nM	500 nM	140 nM	–
COc1ccc(OC)c(C(=O)OCc2ccc3nc(N)nc(N)c3c2)c1	2400 nM	420 nM	220 nM	–
COc1ccc(C(=O)OCc2ccc3nc(N)nc(N)c3c2)cc1OC	510 nM	110 nM	66 nM	–
Nc1nc(N)c2cc(CO)cnc2n1	–	–	–	inhibition [9]: 19%; inhibition [10]: 9%; inhibition [11]: 17%
Nc1nc(N)c2cc(/C=C/C(=O)Oc3ccccc3)ccc2n1	–	1290 nM	189 nM	–
Nc1nc(N)c2cc(C(=O)OCc3ccccc3)ccc2n1	2500 nM	420 nM	360 nM	Relative IC50 [8]: 1.2
Nc1nc(N)c2cc(COC(=O)c3ccccc3)ccc2n1	600 nM	390 nM	99 nM	Ratio [4]: 67; Relative IC50 [8]: 3.9
Nc1nc(N)c2nc(COC(=O)c3ccccc3)cnc2n1	9800 nM	7000 nM	5800 nM	–
Nc1nc(N)c2cc(C(=O)O)ccc2n1	–	–	–	inhibition [12]: 16%; inhibition [13]: 11%; inhibition [14]: 3%
COc1ccc(OC)c(Cc2cnc3nc(N)nc(N)c3c2C)c1 [PIRITREXIM]	–	4.4 nM	–	–
Nc1nc(N)c2cc(COC(=O)c3ccc(C(=O)O)cc3)ccc2n1	1000 nM	–	1000 nM	–
Nc1nc(N)c2cc(CNc3ccccc3)ccc2n1	980 nM	440 nM	100 nM	–
